Results published in publication PMC5161573 (Nature, 2016).

Target: α4β2 nicotinic receptor (α4 subunit) (Homo sapiens, UniProt P17787+P43681, P17787:INS355ER/P17787:DEL356-441/P43681:INS364ER/P43681:DEL365-581)

CN1CCC[C@H]1c1cccnc1 [nicotine]
X-ray co-crystal structure at 3.9 Å: Nicotine binds in the classical neurotransmitter site at the α-β interface, almost fully buried from solvent.
